Reference: US8426408B2, “Pyrimidine inhibitors of kinases” (AbbVie Inc., priority 2009, dated 2013)
pIC50, pKi: −log10 of the molar value.

Columns and labels:
KDR [1] = target: T1, KDR (Homo sapiens, UniProt P35968); test: KDR cellular assay (KDR receptor phosphorylation ELISA); format: cell-based; parameters: expressed in transfected cells; host or cells: 3T3 (embryonic mouse) cells; details: KDR transfected 3T3 (embryonic mouse) cells, VEGF stimulated; read-out: IC50 inhibition of KDR phosphorylation
Procedure: The ability of compounds to inhibit KDR receptor phosphorylation in cells was measured by ELISA following the protocol outlined below.
KDR transfected 3T3 (embryonic mouse) cells added to 96-well tissue culture plates at 20,000 cells/well.
Plates were covered and placed in a 37° C. humidified incubator with 5% CO2 overnight, to allow cells to adhere.
Coating solution was prepared: 500 l/vial PBS was added to 2 vials of anti-KDR antibody, then 1 ml solubilized anti-KDR antibody into 29.0 ml bicarbonate buffer. Coating solution was added to all wells at 150 µl/well (final amount anti-KDR=1 µg/well) and placed at 4° C. overnight.
Blocking solution (2.1 g dry milk+42 ml PBS=5% milk in PBS) was placed on a stir plate for 30 min.
Assay plates were washed twice with PBST, and 200 µl/well blocking solution was added to all wells. Assay plates were covered with plate sealers and placed in a 37° C. microplate chamber until just before cell lysate transfer.
Compound stocks were thawed or prepared in DMSO as 5 mM stocks.
Dilution medium (DM, 1% DMSO in DMEM) and compounds were diluted by half-log increments for concentration response analysis.
Conditioned media was dumped from the tissue culture plates, and plates were blotted dry.
Standard solution in DM, compound dilutions in DM, or DM (for high control, negative control, and reference wells) were added to the tissue culture plates, 25 µl/well. Each pair of tissue culture plates was prepared with the same compounds, solutions, and layout; and will be combined later; Tissue culture plates were covered and placed in the 37° C. microplate chamber for 20 min.
VEGF solution was prepared: 110 l VEGF stock+10.89 ml DM=100 ng/ml VEGF
VEGF solution or DM (for reference wells) was added to the tissue culture plates, 25 μl/well.
Tissue culture plates were covered and placed in the 37° C. microplate chamber for 10 min.
RIPA buffer was prepared (240 l NaVO3 stock+240 l PIC stock+24 l NaF stock+23.496 ml RIPA base) and added to the tissue culture plates, 50 µl/well.
Tissue culture plates were covered and placed on a Labline plate shaker for 10 min (speed about 5).
Assay plates were washed twice with PBST.
Cell lysates from matching wells of each pair of tissue culture plates were combined to =200 µl/well, and were pipetted up and down to mix. Cell lysates were transferred to the assay plates using the same layouts, 170 µl/well.
Assay plates were covered with plate sealers and placed on a Labline plate shaker for 2 hr (speed about 5).
Assay plates were washed 5 times with PBST.
Biotin antibody solution was prepared (16 l biotin antibody stock+32 ml PBST=2000× dilution) and added to the assay plates, 150 µl/well.
Assay plates were covered with plate sealers and placed on a Labline plate shaker for 90 min
Streptavidin-HRP solution was prepared (16 l streptavidin-HRP stock+32 ml PBST=2000× dilution) and added to the assay plates, 150 µl/well.
Assay plates were covered with plate sealers and placed on a Labline plate shaker for 60 min
Substrate was added to the assay plates, 100 µl/well.
As assay plates developed, the plates were each monitored on a Molecular Devices Spectramax set to 650 nm, until the signal in the high control wells was around 0.6 OD and the signal in the negative control wells was around 0.1-0.15 OD.
Stop solution was added to the assay plates, 100 µl/well.
The plates were read on a Molecular Devices Spectramax set to 450 nm.
Data was calculated by Assay Explorer, using same-plate high control wells as 0% and reference standard wells as 100% inhibition of KDR phosphorylation. IC50 values were calculated by non-linear regression analysis of the concentration response data.
Target sequence in this assay (P35968 20-1356): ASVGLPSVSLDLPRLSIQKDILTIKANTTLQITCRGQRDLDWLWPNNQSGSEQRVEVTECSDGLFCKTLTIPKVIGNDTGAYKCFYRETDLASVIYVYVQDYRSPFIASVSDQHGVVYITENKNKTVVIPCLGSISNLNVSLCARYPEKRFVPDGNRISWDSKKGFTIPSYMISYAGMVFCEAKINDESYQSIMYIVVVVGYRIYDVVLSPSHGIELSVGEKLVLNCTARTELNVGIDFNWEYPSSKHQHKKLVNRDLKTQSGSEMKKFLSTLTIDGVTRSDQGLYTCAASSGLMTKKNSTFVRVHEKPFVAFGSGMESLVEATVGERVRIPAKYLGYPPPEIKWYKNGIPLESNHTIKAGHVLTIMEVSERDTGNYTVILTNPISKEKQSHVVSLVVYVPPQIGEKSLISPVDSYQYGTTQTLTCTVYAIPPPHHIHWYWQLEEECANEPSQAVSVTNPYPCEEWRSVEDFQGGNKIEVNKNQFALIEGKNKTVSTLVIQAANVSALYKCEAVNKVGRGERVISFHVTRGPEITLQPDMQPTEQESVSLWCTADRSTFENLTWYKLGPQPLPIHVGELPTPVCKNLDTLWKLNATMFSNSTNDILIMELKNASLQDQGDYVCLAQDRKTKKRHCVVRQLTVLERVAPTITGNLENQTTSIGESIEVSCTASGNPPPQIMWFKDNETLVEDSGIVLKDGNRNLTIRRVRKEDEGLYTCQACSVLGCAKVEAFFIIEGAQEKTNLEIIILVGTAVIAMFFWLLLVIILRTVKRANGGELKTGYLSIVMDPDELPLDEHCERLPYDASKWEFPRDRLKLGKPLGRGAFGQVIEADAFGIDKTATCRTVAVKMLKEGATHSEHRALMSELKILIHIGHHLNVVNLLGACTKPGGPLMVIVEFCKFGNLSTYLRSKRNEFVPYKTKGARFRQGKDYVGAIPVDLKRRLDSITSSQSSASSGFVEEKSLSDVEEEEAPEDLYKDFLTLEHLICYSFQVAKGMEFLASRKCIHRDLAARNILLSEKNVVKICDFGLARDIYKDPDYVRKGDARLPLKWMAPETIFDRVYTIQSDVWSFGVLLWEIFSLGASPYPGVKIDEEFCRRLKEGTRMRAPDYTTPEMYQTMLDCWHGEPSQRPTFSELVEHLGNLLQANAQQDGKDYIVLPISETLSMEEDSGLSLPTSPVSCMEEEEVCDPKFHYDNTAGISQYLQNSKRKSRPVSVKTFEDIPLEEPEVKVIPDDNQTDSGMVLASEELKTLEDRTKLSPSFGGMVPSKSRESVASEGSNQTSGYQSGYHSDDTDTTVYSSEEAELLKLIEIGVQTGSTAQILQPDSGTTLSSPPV

Aurora B = target: T2, Aurora B (Homo sapiens, UniProt Q96GD4); test: Aurora B enzyme inhibition (time-resolved fluorescence, histone H3 peptide); format: biochemical; details: 1 mM ATP
T2 construct: Active Aurora B enzyme (recombinant residues 1-344)
T2 sequence (Q96GD4 whole entry, the tested form may be a part): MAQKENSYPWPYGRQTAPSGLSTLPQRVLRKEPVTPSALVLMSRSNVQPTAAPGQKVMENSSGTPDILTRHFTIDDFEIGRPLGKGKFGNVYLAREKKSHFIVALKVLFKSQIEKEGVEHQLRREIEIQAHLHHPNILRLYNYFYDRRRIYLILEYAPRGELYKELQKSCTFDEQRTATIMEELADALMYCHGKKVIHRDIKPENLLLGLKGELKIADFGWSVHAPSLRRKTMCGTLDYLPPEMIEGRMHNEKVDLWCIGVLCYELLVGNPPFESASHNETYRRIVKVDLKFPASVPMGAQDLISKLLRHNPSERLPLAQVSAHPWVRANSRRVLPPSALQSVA
T2 sequence (Q9NQS7 826-918 partner limits assumed): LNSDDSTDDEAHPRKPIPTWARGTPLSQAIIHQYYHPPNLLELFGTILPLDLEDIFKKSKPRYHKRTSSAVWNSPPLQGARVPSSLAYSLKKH
Summary of the method: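 Recombinant Aurora B (residues 1-344) with GST-INCENP phosphorylated biotinylated histone H3 (1-21) peptide at 1 mM ATP in HEPES pH 7.4 with MgCl2, orthovanadate and Triton X-100 for 1 h. After EDTA stop, the phosphopeptide was detected by TR-FRET (Eu-cryptate anti-phospho-H3 / SA-APC, 665/615 nm ratio). IC50 from an exponential fit.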

Aurora A = target: T3, Aurora A (Homo sapiens, UniProt O14965); test: Aurora A enzyme inhibition (time-resolved fluorescence, STK substrate-2); format: biochemical; details: 1 mM ATP
T3 sequence (O14965 1-403): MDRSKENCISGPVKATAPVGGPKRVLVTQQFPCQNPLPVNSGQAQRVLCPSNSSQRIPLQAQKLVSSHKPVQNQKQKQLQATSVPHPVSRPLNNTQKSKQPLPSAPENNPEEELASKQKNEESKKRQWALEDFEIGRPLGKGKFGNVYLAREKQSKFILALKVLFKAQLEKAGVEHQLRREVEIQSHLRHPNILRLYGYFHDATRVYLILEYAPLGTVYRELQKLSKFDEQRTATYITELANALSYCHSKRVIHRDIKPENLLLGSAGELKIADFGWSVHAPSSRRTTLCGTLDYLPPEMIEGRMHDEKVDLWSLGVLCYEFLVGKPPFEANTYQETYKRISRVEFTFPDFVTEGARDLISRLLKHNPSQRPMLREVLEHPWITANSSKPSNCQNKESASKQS
Summary of the method: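 Active enzyme incubated 1 h with biotinylated STK substrate-2, 1 mM ATP and inhibitor in Hepes pH 7.4 with MgCl2, orthovanadate and Triton X-100. EDTA stop; phosphopeptide detected by Eu-cryptate anti-phospho-STK/SA-XL665 TR-FRET (665/615 nm ratio); IC50 by exponential fit.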

KDR [2] = target: T1, KDR; test: KDR HTRF in vitro kinase assay; format: biochemical; parameters: purified enzyme (His6-KDR 789-1354, MW 63 kD); His6 (N); details: 1 mM ATP; read-out: KDR enzyme inhibition data (Ki)
Summary of the method: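 His6-KDR 789-1354 (7 ng/well) with 0.5 μM biotinylated peptide substrate and 1 mM ATP in HEPES pH 7.1, MgCl2/MnCl2, 60 min at room temperature. EDTA-quenched, detected by streptavidin-XL-665 plus Eu-kryptate anti-phosphotyrosine HTRF after 3 h; IC50 from 620/665 nm ratio.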
Target sequence in this assay (P35968 789-1354): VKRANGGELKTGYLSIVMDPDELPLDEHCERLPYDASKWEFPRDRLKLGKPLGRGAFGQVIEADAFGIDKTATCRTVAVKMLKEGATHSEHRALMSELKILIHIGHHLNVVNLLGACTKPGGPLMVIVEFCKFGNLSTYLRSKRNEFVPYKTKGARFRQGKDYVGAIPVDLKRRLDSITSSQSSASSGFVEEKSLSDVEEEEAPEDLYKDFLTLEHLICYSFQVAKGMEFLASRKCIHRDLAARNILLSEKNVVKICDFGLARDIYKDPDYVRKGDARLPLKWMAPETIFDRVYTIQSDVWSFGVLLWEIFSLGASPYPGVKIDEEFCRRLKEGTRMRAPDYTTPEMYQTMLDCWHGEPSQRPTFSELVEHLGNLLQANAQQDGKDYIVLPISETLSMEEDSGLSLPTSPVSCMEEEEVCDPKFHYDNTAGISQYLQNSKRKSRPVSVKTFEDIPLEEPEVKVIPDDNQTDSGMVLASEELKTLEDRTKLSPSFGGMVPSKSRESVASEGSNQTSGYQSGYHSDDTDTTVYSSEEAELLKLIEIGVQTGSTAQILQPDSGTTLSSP

Row | pIC50 (KDR [1]) | pKi (Aurora B) | pKi (Aurora A) | pKi (KDR [2]) | Compound
1 | 6.00 to 7.00 | > 7.00 | > 7.00 | > 7.00 | Cn1cc(Nc2ncc(Br)c(N[C@H]3[C@@H](C(N)=O)C[C@H]4C[C@@H]3C4(C)C)n2)cn1 [Example 182, (1R,2R,3S,5R)-2-({5-bromo-2-[(1-methyl-1H-pyrazol-4-yl)amino]pyrimidin-4-yl}amino)-6,6-dimethylbicyclo[3.1.1]heptane-3-carboxamide]
2 | 6.00 to 7.00 | > 7.00 | > 7.00 | > 7.00 | CCn1cc(Nc2ncc(Br)c(N[C@H]3[C@@H](C(N)=O)C[C@H]4C[C@@H]3C4(C)C)n2)cn1 [Example 183, (1R,2R,3S,5R)-2-({5-bromo-2-[(1-ethyl-1H-pyrazol-4-yl)amino]pyrimidin-4-yl}amino)-6,6-dimethylbicyclo[3.1.1]heptane-3-carboxamide]
3 | 6.00 to 7.00 | > 7.00 | > 7.00 | > 7.00 | CC1(C)[C@H]2C[C@H](C(N)=O)[C@H](Nc3nc(Nc4cnn(CCc5ccccc5)c4)ncc3Cl)[C@@H]1C2 [Example 188, (1R,2R,3S,5R)-2-[(5-chloro-2-{[1-(2-phenylethyl)-1H-pyrazol-4-yl]amino}pyrimidin-4-yl)amino]-6,6-dimethylbicyclo[3.1.1]heptane-3-carboxamide]
4 | 6.00 to 7.00 | > 7.00 | 6.00 to 7.00 | 6.00 to 7.00 | CN1CCN(CCn2cc(Nc3ncc(Cl)c(N[C@H]4[C@@H](C(N)=O)C[C@H]5C[C@@H]4C5(C)C)n3)cn2)CC1 [Example 190, (1R,2R,3S,5R)-2-{[5-chloro-2-({1-[2-(4-methylpiperazin-1-yl)ethyl]-1H-pyrazol-4-yl}amino)pyrimidin-4-yl]amino}-6,6-dimethylbicyclo[3.1.1]heptane-3-carboxamide]

Continued, molecule first:

Row | Compound | pIC50 (KDR [1]) | pKi (Aurora B) | pKi (Aurora A) | pKi (KDR [2])
5 | Cn1cc(Nc2ncc(Cl)c(Nc3ccc4[nH]ncc4c3)n2)cn1 [Example 175, 5-chloro-N^4-(1H-indazol-5-yl)-N^2-(1-methyl-1H-pyrazol-4-yl)pyrimidine-2,4-diamine] | 6.00 to 7.00 | > 7.00 | > 7.00 | > 7.00
6 | OCCn1cc(Nc2ncc(Cl)c(Nc3ccc4[nH]ncc4c3)n2)cn1 [Example 180, 2-(4-{[5-chloro-4-(1H-indazol-5-ylamino)pyrimidin-2-yl]amino}-1H-pyrazol-1-yl)ethanol] | 6.00 to 7.00 | > 7.00 | > 7.00 | > 7.00
7 | Cc1c(Nc2ncc(Cl)c(N[C@H]3[C@@H](C(N)=O)C[C@H]4C[C@@H]3C4(C)C)n2)cnn1C [Example 184, (1R,2R,3S,5R)-2-({5-chloro-2-[(1,5-dimethyl-1H-pyrazol-4-yl)amino]pyrimidin-4-yl}amino)-6,6-dimethylbicyclo[3.1.1]heptane-3-carboxamide] | 6.00 to 7.00 | > 7.00 | > 7.00 | > 7.00
8 | Cc1c(Nc2ncc(Br)c(N[C@H]3[C@@H](C(N)=O)C[C@H]4C[C@@H]3C4(C)C)n2)cnn1C [Example 185, (1R,2R,3S,5R)-2-({5-bromo-2-[(1,5-dimethyl-1H-pyrazol-4-yl)amino]pyrimidin-4-yl}amino)-6,6-dimethylbicyclo[3.1.1]heptane-3-carboxamide] | 6.00 to 7.00 | > 7.00 | > 7.00 | > 7.00
9 | CC1(C)[C@H]2C[C@H](C(N)=O)[C@H](Nc3nc(Nc4cnn(Cc5ccccc5)c4)ncc3Cl)[C@@H]1C2 [Example 187, (1R,2R,3S,5R)-2-({2-[(1-benzyl-1H-pyrazol-4-yl)amino]-5-chloropyrimidin-4-yl}amino)-6,6-dimethylbicyclo[3.1.1]heptane-3-carboxamide] | 6.00 to 7.00 | > 7.00 | > 7.00 | > 7.00
10 | CC1(C)[C@H]2C[C@H](C(N)=O)[C@H](Nc3nc(Nc4cnn(-c5ccccc5)c4)ncc3Cl)[C@@H]1C2 [Example 189, (1R,2R,3S,5R)-2-({5-chloro-2-[(1-phenyl-1H-pyrazol-4-yl)amino]pyrimidin-4-yl}amino)-6,6-dimethylbicyclo[3.1.1]heptane-3-carboxamide] | 6.00 to 7.00 | > 7.00 | > 7.00 | > 7.00
